Assay results taken from patent US7285572B2, “CaSR antagonist” (Japan Tobacco Inc., priority 2003, dated 2007).

Tests used:
human calcium receptor = target: T1, human calcium receptor (Homo sapiens, UniProt P41180); test: Evaluation of antagonistic action on calcium receptor using reporter gene (luciferase); type: cell-based; details: rat adrenal derived cells with luciferase and human calcium receptor cDNA, 5 mM calcium chloride, 4 hrs; read-out: IC50 (concentration showing 50% inhibitory rate of luciferase activity)
T1 construct: expressed in transfected cells; host or cells: cell strain derived from rat adrenal, co-transfected with luciferase cDNA
T1 sequence (P41180 20-1078): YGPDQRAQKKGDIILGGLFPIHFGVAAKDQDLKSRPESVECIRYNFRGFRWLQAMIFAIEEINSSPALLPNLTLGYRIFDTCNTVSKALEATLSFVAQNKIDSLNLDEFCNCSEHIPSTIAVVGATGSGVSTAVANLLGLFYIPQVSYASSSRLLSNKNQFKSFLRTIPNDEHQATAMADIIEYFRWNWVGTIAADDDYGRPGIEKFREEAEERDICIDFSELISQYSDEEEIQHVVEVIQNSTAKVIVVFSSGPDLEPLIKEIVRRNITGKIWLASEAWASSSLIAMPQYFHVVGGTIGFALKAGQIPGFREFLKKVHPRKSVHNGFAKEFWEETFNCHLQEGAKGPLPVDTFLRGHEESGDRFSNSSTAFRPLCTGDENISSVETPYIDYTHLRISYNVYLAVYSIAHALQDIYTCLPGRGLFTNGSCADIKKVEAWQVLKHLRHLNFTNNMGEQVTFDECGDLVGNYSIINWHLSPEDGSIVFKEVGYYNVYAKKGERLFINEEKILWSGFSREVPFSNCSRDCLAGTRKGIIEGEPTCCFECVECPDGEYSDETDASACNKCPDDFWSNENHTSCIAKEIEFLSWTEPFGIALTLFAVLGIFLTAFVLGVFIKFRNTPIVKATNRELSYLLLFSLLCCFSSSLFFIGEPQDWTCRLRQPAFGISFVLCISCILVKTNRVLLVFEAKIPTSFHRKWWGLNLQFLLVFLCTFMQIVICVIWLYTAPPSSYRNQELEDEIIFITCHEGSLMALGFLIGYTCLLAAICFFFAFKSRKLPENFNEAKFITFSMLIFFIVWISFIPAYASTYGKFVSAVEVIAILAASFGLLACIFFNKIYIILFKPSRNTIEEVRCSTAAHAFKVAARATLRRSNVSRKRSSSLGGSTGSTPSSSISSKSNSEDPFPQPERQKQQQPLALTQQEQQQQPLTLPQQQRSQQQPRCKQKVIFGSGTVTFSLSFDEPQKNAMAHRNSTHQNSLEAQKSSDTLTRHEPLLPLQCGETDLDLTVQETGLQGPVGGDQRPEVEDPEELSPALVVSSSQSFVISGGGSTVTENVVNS
Description: Evaluation of Antagonistic Action on Calcium Receptor Using Reporter Gene
Luciferase cDNA and human calcium receptor cDNA were introduced into a cell strain derived from rat adrenal to transform the cells, and the transformed cells were cultured in a medium (80 μl, F12 medium containing 0.5% dialyzed horse serum and 0.25% dialyzed bovine fetal serum). A dimethyl sulfoxide solution containing a test compound at 0.1-10000 μM was diluted 100-fold with the medium and added to the test compound group at 10 μl per well (final concentration of dimethyl sulfoxide is 0.1%). In the same manner as in test compound group, dimethyl sulfoxide diluted 100-fold with medium was added to a control group and a blank group. Then, 50 mM calcium chloride-containing medium was added to every well except the blank group at 10 μl per well (final concentration is 5 mM). A medium alone was added to the blank group. After culture for 4 hrs, luciferase substrate was added and the luciferase activity was measured with a photoluminometer. The inhibitory rate (%) was calculated from the obtained measured values according to the following formula.
Based on the results, the concentration (IC50) showing 50% inhibitory rate was determined.

CYP2D6 = target: T2, CYP2D6 (Homo sapiens, UniProt P10635); test: Metabolic enzyme CYP2D6 inhibitory activity (BD Bioscience kit); type: in vitro ADME; details: enzyme activity free of test compound as 100%; read-out: CYP2D6 IC50 (concentration showing 50% inhibition)
T2 construct: purchased BD Bioscience
Description: Metabolic Enzyme CYP2D6 Inhibitory Activity
Using a metabolic enzyme CYP2D6 inhibition measurement kit (BD Bioscience) and following the manual of the kit, the inhibitory activity of the test compound was measured. With the enzyme activity free of the test compound as 100%, the concentration (IC50) showing 50% inhibition was determined. The results are shown in Table 8, wherein “>10” means over 10 μM.

PTH release = details: rat PTH (1-34) 5 μg/kg, OVX rat; cited from earlier work
PTH secretion = test: PTH secretagogue action, oral administration to fasted male SD rats, serum PTH by ELISA; type: in vivo, rat; details: test compound administration group
Description: The test compound was orally administered to 5 to 9-week-old male SD rats (Charles River Japan, Inc.) fasted for 20 hr, using a solvent (0.5% aqueous methyl cellulose solution) at a dose of 3 mg/5 ml/kg or 30 mg/5 ml/kg. A solvent alone was orally administered to the control group at a dose of 5 ml/kg. The blood was drawn from the tail vein 15 min, 30 min, 60 min and 120 min after the administration of the test compound, and serum was obtained. The serum PTH concentration was measured using rat PTH ELISA kit (Amersham Biosciences).

T2 sequence (P10635 whole entry): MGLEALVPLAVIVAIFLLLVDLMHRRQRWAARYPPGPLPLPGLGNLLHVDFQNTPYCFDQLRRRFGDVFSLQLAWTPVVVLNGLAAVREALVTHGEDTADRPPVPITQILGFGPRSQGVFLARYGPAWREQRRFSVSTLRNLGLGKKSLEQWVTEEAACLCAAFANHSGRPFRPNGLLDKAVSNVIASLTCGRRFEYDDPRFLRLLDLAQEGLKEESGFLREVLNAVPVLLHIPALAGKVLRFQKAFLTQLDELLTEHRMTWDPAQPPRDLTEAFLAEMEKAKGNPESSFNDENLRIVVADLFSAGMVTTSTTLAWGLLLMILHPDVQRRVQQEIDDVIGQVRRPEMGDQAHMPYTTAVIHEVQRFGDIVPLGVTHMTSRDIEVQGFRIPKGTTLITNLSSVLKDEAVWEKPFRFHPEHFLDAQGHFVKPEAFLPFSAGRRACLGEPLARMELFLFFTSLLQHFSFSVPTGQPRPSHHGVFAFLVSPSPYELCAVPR

| Compound | IC50 (human calcium receptor) | further results |
| --- | --- | --- |
| CC(C)(Cc1ccc2ccccc2c1)NC[C@@H](O)COC(C1CC1)C1CC1 [Example 3, (2R)-1-dicyclopropylmethoxy-3-[[2-methyl-1-(naphthalen-2-yl)propan-2-yl]amino]propan-2-ol] | 23 nM | – |
| CCOP(=O)(O)c1ccc(-c2ccccc2C(C)OC[C@H](O)CNC(C)(C)Cc2ccc3ccccc3c2)cc1 (stereo partly drawn) [Example 21] | 15 nM | – |
| CC(OC[C@H](O)CNC(C)(C)Cc1ccc2ccccc2c1)c1ccccc1-c1ccc(C(=O)NS(C)(=O)=O)cc1 (stereo partly drawn) [Example 18] | 22 nM | IC50 (CYP2D6): 8000 nM |
| CC(OC[C@H](O)CNC(C)(C)Cc1ccc2ccccc2c1)c1ccccc1OCC(=O)O (stereo partly drawn) [Example 22] | 237 nM | – |
| C[C@@H](OC[C@H](O)CNC(C)(C)Cc1ccc2ccccc2c1)c1ccccc1OCCCC(=O)O [Example 24] | 246 nM | – |
| C[C@@H](OC[C@H](O)CNC(C)(C)Cc1ccc2ccccc2c1)c1ccccc1-c1ccc(C(=O)NO)cc1 [Example 17] | 104 nM | – |
| rat PTH (1-34): rat parathyroid hormone fragment (1-34) administered to OVX rat | – | blood PTH concentration peak in 30 minutes (PTH release): about 175 pg/ml; time for blood PTH concentration to return to the original level (PTH release): 2 h |
| CC(OC[C@H](O)CNC(C)(C)Cc1ccc2ccccc2c1)c1ccccc1-c1ccc(C(=O)O)s1 (stereo partly drawn) [Example 9, 5-[2-[1-[(2R)-2-hydroxy-3-[[2-methyl-1-(naphthalen-2-yl)propan-2-yl]amino]propoxy]ethyl]phenyl]thiophene-2-carboxylic acid] | 14 nM | – |
| CC(OC[C@H](O)CNC(C)(C)Cc1ccc2ccccc2c1)c1ccccc1-c1ccc(C(N)=O)cc1 (stereo partly drawn) [Example 20] | 30 nM | – |
| CC(OC[C@H](O)CNC(C)(C)Cc1ccc2ccccc2c1)c1ccccc1-c1ccc(-c2nnn[nH]2)cc1 (stereo partly drawn) [Example 7, (R)-3-[[2-methyl-1-(naphthalen-2-yl)propan-2-yl]amino]-1-[1-[4′-(1H-tetrazol-5-yl)biphenyl-2-yl]ethoxy]propan-2-ol] | 11 nM | – |
| CC(OC[C@H](O)CNC(C)(C)Cc1ccc2ccccc2c1)c1ccccc1-c1ccc(-c2nc(=O)o[nH]2)cc1 (stereo partly drawn) [Example 19] | 18 nM | – |
| CC(OC(=O)OC1CCCCC1)OC(=O)c1ccc(-c2ccccc2C(C)OC[C@H](O)CNC(C)(C)Cc2ccc3ccccc3c2)cc1 (stereo partly drawn) [Example 8, 1-(cyclohexyloxycarbonyloxy)ethyl 2′-[1-[(2R)-2-hydroxy-3-[[2-methyl-1-(naphthalen-2-yl)propan-2-yl]amino]propoxy]ethyl]biphenyl-4-carboxylate] | 21 nM | – |
| C[C@@H](OC[C@H](O)CNC(C)(C)Cc1ccc2ccccc2c1)c1ccccc1-c1ccc(N)cc1 [Example 29] | 55 nM | – |
| C=Cc1ccc(CC(C)(C)NC[C@@H](O)CO[C@H](C)c2ccccc2-c2ccc(C(=O)O)cc2)cc1 [Example 27] | 14 nM | – |
| CCOC(=O)Cc1ccc(-c2ccccc2C(C)OC[C@H](O)CNC(C)(C)Cc2ccc3ccccc3c2)cc1 (stereo partly drawn) [Example 13] | 160 nM | – |
| CC(OC[C@H](O)CNC(C)(C)Cc1ccc2ccccc2c1)c1ccccc1C#CC(=O)O (stereo partly drawn) [Example 10, [2-[1-[(2R)-2-hydroxy-3-[[2-methyl-1-(naphthalen-2-yl)propan-2-yl]amino]propoxy]ethyl]phenyl]propynoic acid] | 23 nM | – |
| C[C@@H](OC[C@H](O)CNC(C)(C)Cc1ccc2ccccc2c1)c1ccccc1/C=C/C(=O)O [Example 23] | 16 nM | – |
| CCOP(=O)(O)c1ccc(-c2ccccc2[C@@H](C)OC[C@H](O)CNC(C)(C)Cc2ccc3ccccc3c2)cc1 [Example 11, Monoethyl [2′-[(1R)-1-[(2R)-2-hydroxy-3-[[2-methyl-1-(naphthalen-2-yl)propan-2-yl]amino]propoxy]ethyl]biphenyl-4-yl]phosphonate] | 8 nM | – |
| CC(OC[C@H](O)CNC(C)(C)Cc1ccc2ccccc2c1)c1ccccc1-c1ccc(-c2nsc(=O)[nH]2)cc1 (stereo partly drawn) [Example 16] | 135 nM | – |
| CC(OC[C@H](O)CNC(C)(C)Cc1ccc2ccccc2c1)c1ccccc1OCCCCC(=O)O (stereo partly drawn) [Example 26] | 190 nM | – |
| C[C@@H](OC[C@H](O)CNC(C)(C)Cc1ccc2ccccc2c1)c1ccccc1CCCCC(=O)O [Example 25] | 18 nM | serum PTH concentration 15 min later (PTH secretion; 3 mg/kg oral): 19.16 ± 4.05 pg/mL; serum PTH concentration 30 min later (PTH secretion; 3 mg/kg oral): 18.15 ± 3.15 pg/mL |
| C[C@@H](OC[C@H](O)CNC(C)(C)Cc1ccc2ccccc2c1)c1ccccc1CCCCCC(=O)O [Example 2, 6-[2-[(1R)-1-[(2R)-2-hydroxy-3-[[2-methyl-1-(naphthalen-2-yl)propan-2-yl]amino]propoxy]ethyl]phenyl]hexanoic acid] | 14 nM | – |
| CC(OC[C@H](O)CNC(C)(C)Cc1ccc2ccccc2c1)c1ccccc1-c1ccc(CC(N)=O)cc1 (stereo partly drawn) [Example 15] | 145 nM | – |
| CC(OC[C@H](O)CNC(C)(C)Cc1ccc2ccccc2c1)c1ccccc1-c1ccc(CC(=O)O)cc1 (stereo partly drawn) [Example 14] | 119 nM | – |
| Cc1ccccc1[C@H](OC[C@@H](CNC(C)(C)Cc1ccc2ccccc2c1)OC(=O)/C=C\C(=O)O)C1CC1 [Example 6, (Z)-butenedioic acid mono-[(2R)-1-[(1R)-(cyclopropyl)-(2-methylphenyl)methoxy]-3-[[2-methyl-1-(naphthalen-2-yl)propan-2-yl]amino]propan-2-yl]ester] | 79 nM | serum PTH concentration 30 min later (PTH secretion; 30 mg/kg oral): 14.45 ± 1.45 pg/mL; serum PTH concentration 60 min later (PTH secretion; 30 mg/kg oral): 13.91 ± 1.62 pg/mL |
| C[C@@H](OC[C@H](O)CNC(C)(C)Cc1ccc2ccccc2c1)c1ccccc1-c1cccc(CC(=O)O)c1 [Example 4, [2′-[(1R)-1-[(2R)-2-hydroxy-3-[[2-methyl-1-(naphthalen-2-yl)propan-2-yl]amino]propoxy]ethyl]biphenyl-3-yl]acetic acid] | 11 nM | serum PTH concentration 15 min later (PTH secretion; 3 mg/kg oral): 22.71 ± 2.52 pg/mL; serum PTH concentration 30 min later (PTH secretion; 3 mg/kg oral): 22.83 ± 2.91 pg/mL; serum PTH concentration 60 min later (PTH secretion; 3 mg/kg oral): 13.69 ± 2.09 pg/mL; serum PTH concentration 120 min later (PTH secretion; 3 mg/kg oral): 11.76 ± 1.24 pg/mL |
| Cc1ccc(CC(C)(C)NC[C@@H](O)CO[C@H](C)c2ccccc2OCc2ccc(C(=O)O)s2)cc1F [Example 30] | 183 nM | – |
| CC(=O)NCc1ccc(-c2ccccc2[C@@H](C)OC[C@H](O)CNC(C)(C)Cc2ccc3ccccc3c2)cc1 [Example 5, N-[[2′-[(1R)-1-[(2R)-2-hydroxy-3-[[2-methyl-1-(naphthalen-2-yl)propan-2-yl]amino]propoxy]ethyl]biphenyl-4-yl]methyl]acetamide] | 24 nM | – |
| C[C@@H](OC[C@H](O)CNC(C)(C)Cc1ccc2ccccc2c1)c1ccccc1-c1ccc([N+](=O)[O-])cc1 [Example 28] | 254 nM | – |
